Where a SMILES comes first, the peptide text is derived from it. Where no end group is shown, it is not given here. The star is where a group is joined. 5FAM = O=C1OC2(c3ccc(O)cc3Oc3cc(O)ccc32)c2ccc(C(=O)*)cc21

This note sets out measurements from publication PMC9247985, “Accessing Diverse Pyridine-Based Macrocyclic Peptides by a Two-Site Recognition Pathway” (Journal of the American Chemical Society, 2022).

The first assay deals with MBP-MroD (Micromonospora rosaria, UniProt A0A136PPB2). Put plainly: biochemical.
Chain of MBP-MroD (A0A136PPB2 1-366): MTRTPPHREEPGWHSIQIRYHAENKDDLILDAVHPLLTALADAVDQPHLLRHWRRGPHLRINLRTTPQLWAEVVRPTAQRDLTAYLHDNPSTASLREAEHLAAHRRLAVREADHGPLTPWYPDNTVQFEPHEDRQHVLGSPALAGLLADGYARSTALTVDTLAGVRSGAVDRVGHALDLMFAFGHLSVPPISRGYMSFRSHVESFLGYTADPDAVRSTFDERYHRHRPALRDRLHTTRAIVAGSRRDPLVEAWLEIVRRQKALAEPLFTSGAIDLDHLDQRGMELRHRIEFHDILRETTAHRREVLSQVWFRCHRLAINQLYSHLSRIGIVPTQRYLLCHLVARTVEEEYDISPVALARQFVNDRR
Details: not given
The source says:
Experiments were done in triplicates. Stock
(1 picture or pasted object on this page, not shown here)
One may read the Kd as the constant that tells how readily two partners part at equilibrium. Low readings indicate higher affinity, high ones lower affinity. As for `CC[C@H](C)[C@H](NC(=O)[C@@H](NC(=O)[C@H](Cc1c[nH]c2ccccc12)NC(=O)[C@H](CO)NC(=O)CNC(=O)[C@H](CC(C)C)NC(=O)[C@H](Cc1c[nH]c2ccccc12)NC(=O)CNC(=O)[C@H](CO)NC(=O)[C@H](C)NC(=O)CNC(=O)[C@@H](NC(=O)[C@H](CCC(=O)O)NC(=O)[C@@H](NC(=O)[C@H](CC(N)=O)NC(=O)CNC(=O)[C@H](CC(C)C)NC(=O)CNC(=O)CNC(=O)[C@@H](NC(=O)[C@H](CO)NC(=O)[C@H](CC(C)C)NC(=O)[C@H](C)NC(=O)[C@H](C)NC(=O)[C@H](CC(C)C)NC(=O)[C@H](CCC(=O)O)NC(=O)[C@H](CCC(=O)O)NC(=O)[C@H](CC(=O)O)NC(=O)[C@@H](NC(=O)[C@H](C)NC(=O)[C@H](CC(C)C)NC(=O)[C@H](CC(=O)O)NC(=O)[C@H](CC(C)C)NC(=O)[C@H](CC(=O)O)NC(=O)[C@@H](NC(=O)[C@@H](NC(=O)[C@H](CC(=O)O)NC(=O)[C@H](CC(C)C)NC(=O)[C@H](CC(=O)O)NC(=O)[C@H](CO)NC(=O)c1ccc2c(c1)C(=O)OC21c2ccc(O)cc2Oc2cc(O)ccc21)[C@@H](C)CC)C(C)C)C(C)C)C(C)C)[C@@H](C)O)C(C)C)C(C)C)C(=O)O` [fluorescein-Δ12MroA1] (5FAM-SDLDIVDLDLAVDEELAALSVGGLGNTEVGASGWLGSWVI-OH), the Kd was approximately 12 nM.

Another assay concerns MroB.
Assay: not given
As to conditions: read-out: IC50 MroB; SEM.
The term IC50 denotes the point on the concentration scale where inhibition reaches its midpoint. Consider `CC[C@H](C)[C@H](NC(=O)[C@H](CC(=O)O)NC(=O)[C@H](CC(C)C)NC(=O)[C@H](CC(=O)O)NC(=O)[C@@H](N)CO)C(=O)N[C@H](C(=O)N[C@@H](CC(=O)O)C(=O)N[C@@H](CC(C)C)C(=O)N[C@@H](CC(=O)O)C(=O)N[C@@H](CC(C)C)C(=O)N[C@@H](C)C(=O)N[C@H](C(=O)N[C@@H](CC(=O)O)C(=O)N[C@@H](CCC(=O)O)C(=O)N[C@@H](CCC(=O)O)C(=O)N[C@@H](CC(C)C)C(=O)N[C@@H](C)C(=O)N[C@@H](C)C(=O)N[C@@H](CC(C)C)C(=O)N[C@@H](CO)C(=O)N[C@H](C(=O)NCC(=O)NCC(=O)N[C@@H](CC(C)C)C(=O)NCC(=O)N[C@@H](CC(N)=O)C(=O)N[C@H](C(=O)N[C@@H](CCC(=O)O)C(=O)N[C@H](C(=O)NCC(=O)N[C@@H](C)C(=O)N[C@@H](CO)C(=O)NCC(=O)N[C@@H](Cc1c[nH]c2ccccc12)C(=O)N[C@@H](CC(C)C)C(=O)NCC(=O)N[C@@H](CO)C(=O)N[C@@H](Cc1c[nH]c2ccccc12)C(=O)N[C@H](C(=O)N[C@H](C(=O)OC)[C@@H](C)CC)C(C)C)C(C)C)[C@@H](C)O)C(C)C)C(C)C)C(C)C` [Δ12MroA1-COOMe] (H-SDLDIVDLDLAVDEELAALSVGGLGNTEVGASGWLGSWVI-OMe), for which the IC50 was 4200 ± 1700 nM.

For a further assay, the system named is MroB/C. Briefly: MroB/C dehydration (Dha formation) of in vitro translated MroA2 variants, MALDI-TOF-MS. It counts as biochemical, Micromonospora rosaria. As to conditions: Table S6, MroA2 multi-site variants, 2 μM MBP-MroB, 2 μM MBP-MroC, 1 h room temperature. The protocol: in 2 mM NaOAc pH 5.2, and the concentration was assayed using 260 nm absorbance. This tRNA Glu (CUC) was t he n used in the MroBC-catalyzed dehydration assay.
In vitro translation and enzymati c as s ays (dehydration and cyclization). In a 0.65 mL protein low-binding Eppendorf tube placed on ice, 0.75 μL of purified mroA variant template DNA was mixed with 0.75 μL of Solution B and 1 μL of Solution A of PURExpress I n vi t ro Protein Synthesis Kit (E6800L) purchased from NEB (total volume of reaction is 2.5 μL ). The translation reactions were performed at 37°C for 1 hon an aluminum block.
For a full MroBCD substrate scope investigation, a total translation volume for each variant of 7.5 μL was performed.
1.5 μL of 90 mM i odoacet am i de (IAA) was added to quench d ithiothreitol (DTT) in the translation reaction mixture, a thiol -based nucleophile that can react with electrophilic dehydroalanines generated from MroBC-cat al yzed dehydration assays. […]
In the 6 μL part, 10.2 μL of the enzyme mix containing enzymes and cofactors was added along with 1.8 μ L 90 mM ATP (pH 7.5) ,which wasused to initiate the reaction . The enzyme mix was made by adding these components in the following order: HEPES pH 7.5, MgCl2, glutamate, T. bispora tRNAGl u(CUC), thermostable inorganic pyrophosphatase (TIPP), TEV (L56V/S135G/S219V) (w/w ratio with a total amount of MBP-tagged protein = 1: 10), MBP-MroB, MBP-MroC, and T. bispora GluRS. The enzyme mix was incubated 25 min at room temper at ure before adding to the translation product to facilitate in situ TEV -catalyzed cleavage of MBP from MBP -MroB and MBP - MroC. The enzymatic reaction proceeded for 1 h at room temperature. Overal l , the concentration of components in the 18 μL reaction mix is as follows : 50 mM HEPES pH 7.5, 5 mM MgCl2, gl utamate 1 mM, 3 μM T. bi s por a tRNAGlu, 1 μM T. bispora GluRS, 2 μM MBP-MroB, 2 μM MBP-MroC, […], 0.027 U/μL TIPP, and 5 mM IAA. In addition, the […] was incubated with the same buffer lacking enzymes and tRNA as a translation control.
After incubation, the enzyme reaction (18 μ L) was split into two equal parts. One part was treated with MBP-MroD such that the final concentration of MBP-MroD is 3 μM, and the other part was added the same volume but with buffer lacking MBP-MroD (50 mM HEPES, 300 mM NaCl, 2.5% glycerol, 0.5 mM TCEP).The reaction further proceeded for 1.5 h at room temperature. All reaction mixture was then desalted with solid- phase extraction using Ziptip with 0.6 μL C18 resin (EMD Milli por e ) and crystallized on an MTP384 steel target plate using either sa t ur at e d sina pi c ac i d or 50 mg/mL Super DHB [ dissolved in 60% acetonitrile and 0.1% trifluoroacetic acid (TFA )] as the matrix. T he crystallized spots were then analyzed using MALDI-TOF-MS (Bruker Ultraflex). The external standard for MALDI - TOF-MS analysis is ProteoMass Peptide and Protein MALDI -MS Calibration Kit ( Si g ma ) In this work, TEV was used in every variant tested. […]
For “SGDAMRWRSWLI [53-A8R, Arg variant of multi-site variant 53]”, the Dha formation is on record as 2 Dha. On the same count and under the same terms, then “SGGYRPRSWLI [38-H7R, Arg variant of multi-site variant 38]”, with 2 Dha; and “SGHYKPQRSWLI [55-A8R, Arg variant of multi-site variant 55]”, with 2 Dha; and “SGIAKEVRSWLI [47-Q8R, Arg variant of multi-site variant 47]”, with 2 Dha. Same read-out and setting: as for “SGKALERSWLI [29-F7R, Arg variant of multi-site variant 29]”, the entry is “M ix of 1, 2 Dha”. “SGLQHGKRSWLI [52-Y8R, Arg variant of multi-site variant 52]”: the Dha formation worked out at 2 Dha. On the same count and under the same terms, as for “SGQGRNRSWLI [24-V7R, Arg variant of multi-site variant 24]”, the figure is 2 Dha; as for “SGREFARSWLI [35-N7R, Arg variant of multi-site variant 35]”, 2 Dha; as for “SGRYAGRSWLI [39-W7R, Arg variant of multi-site variant 39]”, 2 Dha. Compound “SGYDRQRSWLI [56-Y7R, Arg variant of multi-site variant 56]” yielded a Dha formation of 2 Dha.

For “SGYHFHNRSWLI [54-V8R, Arg variant of multi-site variant 54]”, the Dha formation worked out at 2 Dha.

For the next assay, the target named is MroD (Micromonospora rosaria, UniProt A0A136PPB2).
Chain of MroD (A0A136PPB2 entry or part of it): as the sequence (A0A136PPB2 1-366) above
Assay: not given
Particulars: read-out: IC50 MroD; SEM.
On to `CC[C@H](C)[C@H](NC(=O)[C@H](CC(=O)O)NC(=O)[C@H](CC(C)C)NC(=O)[C@H](CC(=O)O)NC(=O)[C@@H](N)CO)C(=O)N[C@H](C(=O)N[C@@H](CC(=O)O)C(=O)N[C@@H](CC(C)C)C(=O)N[C@@H](CC(=O)O)C(=O)N[C@@H](CC(C)C)C(=O)N[C@@H](C)C(=O)N[C@H](C(=O)N[C@@H](CC(=O)O)C(=O)N[C@@H](CCC(=O)O)C(=O)N[C@@H](CCC(=O)O)C(=O)N[C@@H](CC(C)C)C(=O)N[C@@H](C)C(=O)N[C@@H](C)C(=O)N[C@@H](CC(C)C)C(=O)N[C@@H](CO)C(=O)N[C@H](C(=O)NCC(=O)NCC(=O)N[C@@H](CC(C)C)C(=O)NCC(=O)N[C@@H](CC(N)=O)C(=O)N[C@H](C(=O)N[C@@H](CCC(=O)O)C(=O)N[C@H](C(=O)NCC(=O)N[C@@H](C)C(=O)N[C@@H](CO)C(=O)NCC(=O)N[C@@H](Cc1c[nH]c2ccccc12)C(=O)N[C@@H](CC(C)C)C(=O)NCC(=O)N[C@@H](CO)C(=O)N[C@@H](Cc1c[nH]c2ccccc12)C(=O)N[C@H](C(=O)N[C@H](C(=O)OC)[C@@H](C)CC)C(C)C)C(C)C)[C@@H](C)O)C(C)C)C(C)C)C(C)C` [Δ12MroA1-COOMe] (H-SDLDIVDLDLAVDEELAALSVGGLGNTEVGASGWLGSWVI-OMe), for which the IC50 is 400 ± 60 nM. Turning to “SDLDIVDLDLAVDEELAALSVGGLGNTEVGA [Δ12MroA1 leader]”, the IC50 came to 16000 ± 4400 nM. Same read-out and setting: as for “SDLDIVDLDLAVDEELAALSVGGLGNTEVGASGWLGSGVI [Δ12MroA1-W7G]”, the figure is 2400 ± 300 nM. Consider “SDLDIVDLDLAVDEELAALSVGGLGNTEVGASGWLGSWGI [Δ12MroA1-V8G]”, for which the IC50 was found to be 1700 ± 400 nM. On to “SDLDIVDLDLAVDEELAALSVGGLGNTEVGASGWLGSWVG [Δ12MroA1-I9G]”, for which the IC50 came out at 910 ± 90 nM.

In the case of “SDLDIVDLDLAVDEELAALSVGGLGNTEVGASGWLGSWVI [Δ12MroA1]”, the IC50 stood at 90 ± 20 nM.
